The results in this text go back to paper PMC8623418, “Novel Multitarget Hydroxamic Acids with a Natural Origin CAP Group against Alzheimer’s Disease: Synthesis, Docking and Biological Evaluation” (Pharmaceutics, 2021).

The target of test [1] is T1, HDAC6 (Homo sapiens, UniProt Q9UBN7).
T1 construct: purchased Enzo Life Sciences (Enzo Biochem, New York, NY, USA)
T1 sequence (Q9UBN7 1-1215): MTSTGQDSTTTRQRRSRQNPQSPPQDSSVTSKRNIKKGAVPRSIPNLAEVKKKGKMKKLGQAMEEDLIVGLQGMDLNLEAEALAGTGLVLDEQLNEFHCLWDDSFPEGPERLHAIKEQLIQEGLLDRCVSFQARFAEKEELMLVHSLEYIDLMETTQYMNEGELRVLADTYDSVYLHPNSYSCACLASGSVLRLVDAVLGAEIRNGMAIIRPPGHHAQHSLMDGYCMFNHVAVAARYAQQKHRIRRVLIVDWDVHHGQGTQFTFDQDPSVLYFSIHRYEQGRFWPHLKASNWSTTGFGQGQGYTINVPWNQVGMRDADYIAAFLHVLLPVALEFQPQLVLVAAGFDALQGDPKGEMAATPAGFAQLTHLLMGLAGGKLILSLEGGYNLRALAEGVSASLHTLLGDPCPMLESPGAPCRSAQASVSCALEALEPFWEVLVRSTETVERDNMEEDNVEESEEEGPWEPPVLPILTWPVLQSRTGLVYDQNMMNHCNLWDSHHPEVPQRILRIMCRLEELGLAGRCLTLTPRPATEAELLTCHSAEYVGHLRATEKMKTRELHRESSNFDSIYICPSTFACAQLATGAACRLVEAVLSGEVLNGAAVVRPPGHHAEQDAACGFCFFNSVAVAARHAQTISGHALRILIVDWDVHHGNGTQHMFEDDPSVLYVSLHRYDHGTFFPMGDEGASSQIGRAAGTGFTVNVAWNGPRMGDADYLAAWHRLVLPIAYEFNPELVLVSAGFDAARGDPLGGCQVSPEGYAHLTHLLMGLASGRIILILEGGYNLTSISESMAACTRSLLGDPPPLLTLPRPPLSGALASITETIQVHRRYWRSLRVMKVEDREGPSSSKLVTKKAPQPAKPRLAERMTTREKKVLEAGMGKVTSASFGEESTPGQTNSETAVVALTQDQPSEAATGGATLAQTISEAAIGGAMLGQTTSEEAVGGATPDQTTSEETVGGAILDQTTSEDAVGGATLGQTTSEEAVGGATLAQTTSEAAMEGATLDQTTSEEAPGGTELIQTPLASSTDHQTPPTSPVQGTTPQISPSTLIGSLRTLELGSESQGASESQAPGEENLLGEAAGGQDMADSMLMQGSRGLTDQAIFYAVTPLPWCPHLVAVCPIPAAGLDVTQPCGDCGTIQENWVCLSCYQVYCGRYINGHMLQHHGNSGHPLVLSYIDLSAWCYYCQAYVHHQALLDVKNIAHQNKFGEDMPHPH
Nature of the test: HDAC6 enzyme activity, FLUOR DE LYS fluorometric kit. It is filed as biochemical. To be noted: mean ± SEM; read-out: IC50 HDAC6 Inhibitory Activity.

Test [2] has as its system 5xFAD transgenic mice. Nature of the test: Open field test in 5xFAD mice. It is filed as in vivo. The conditions noted are these: 15 mg/kg i.p. for 20 days, 11-month-old male 5xFAD mice. The method, then:
All animal procedures were approved by the Animal Care and Use Committee of IPAC RAS. For in vivo studies, 11-month-old male mice of the 5xFAD line (Tg(APPSwFlLon,PSEN1*M146L*L286V) 6799Vas/J) were used. The animals were housed in cages with free access to water and food in a room with a 12 h/12 h light–dark cycle, at a temperature of 23 ± 1 °C and humidity of 50 ± 5%. Before the series of experiments, animals were randomly divided into four groups (n = 8 per group): (1) wild-type group (C57BL6/j mouse line); (2) 5xFAD group; (3) 5xFAD + 15 group; and (4) 5xFAD + 25 group.
Both compounds 15 and 25 were dissolved in saline solution and DMSO (10%) immediately before use and intraperitoneally administered to animals for 20 days at a dose of 15 mg/kg body weight for experiments. In the control group, the vehicle solution (saline and DMSO (10%), intraperitoneal) was administered with the same time schedule.
The open field box consisted of a square, non-transparent, grey box (40 cm × 40 cm × 40 cm). Illumination intensity was kept at 50 lux. During a session, a single animal was allowed to explore the empty open field, and its baseline level of activity was measured. The session lasted for 10 min (Figure 5A). […] The number of standing events was manually counted in a blind manner by one observer. […]

What is called IC50 is the concentration that inhibits the measured activity by half. Regarding `O=C(CCCCCCC(=O)NC1C2CC3CC(C2)CC1C3)NO` (stereo not shown) [compound 15, N^1-(Adamant-2-yl)-N^8-Hydroxyoctanediamide], the concentration for half-maximal inhibition (IC50) in test [1] amounted to 0.96 ± 0.01 µM. Moreover, the “Open field: standing events, distance, movement rate, time in central and peripheral areas” value in test [2] was “did not show any alteration”.

On to `O=C(/C=C/c1ccc(C(=O)NO)cc1)NC1C2CC3CC(C2)CC1C3` (stereo not shown) [compound 25, 4-((E)-3-((-Adamantan-2-yl)amino)-3-Oxoprop-1-en-1-yl)-N-Hydroxybenzamide], for which the IC50 in test [1] stood at 6.52 ± 0.4 µM. In addition, the “Open field: standing events, distance, movement rate, time in central and peripheral areas” value in test [2] is on record as “did not show any alteration”.
